In patent US7087552B2, “Modification of floral scent in flowering plants” (Ball Horticultural Company, priority 1999, dated 2006):

Legend:
IS10a = conditions: tobacco cells exposed to 200–400 mM; cited from earlier work
[1] = tested on: intact root systems of soybean seedlings; conditions: intact root systems exposed; cited from earlier work
Potted Snapdragon Plant = assay: Spray application to an intact potted snapdragon plant, headspace floral scent emission
Procedure: In this experiment, a flowering snapdragon plant was selected and the headspace collected for a single 24-hour period. After this time, the inflorescence-bearing stem was sprayed to the point of runoff with a solution of 1 mg/ml benzoic acid. […] The flowers were allowed to dry and the headspace collected for the next 24 hours. […] However, during this 24-hour period after spray application of benzoic acid, several interesting observations were made.

[2] = tested on: hypocotyl cells in light-grown, intact Nicotiana plumbaginifolia seedlings; conditions: 1 mM (approximately 0.125 mg/ml); cited from earlier work
Cut Snapdragon Flowers [3] = assay: Headspace GC-MS of floral scent emission from cut snapdragon flowers placed in treatment solutions; assay type: in vivo; conditions: for Percentage amount of total floral scent emitted compared to the 24-hour period prior to harvest: 5% (w/v) sucrose and/or 0.1 mg/ml benzoic acid
Procedure: Volatiles emitted from snapdragon flowers were determined by headspace analysis, as described previously (Raguso and […], 1995, Plant Systematics and Evolution 194:55-67). […] (light /dark) temperature cycle. Flowers attached to the plant were enclosed in a polyvinylacetate bag (Reynolds, Inc.) and purified air was pumped over the flower at a flow rate of 250 ml/minute. […] Ionization energy was set at 70 eV. Column temperature programming was: 50° C. for 1 minute, then heated to 240° C. at a rate of 10°/minute. The MS was scanned from 41 to 400 AMU (atomic mass units). Simultaneous collections of ambient volatiles were used as controls. Components were first identified through a computer database containing several thousand mass spectra and confirmed by comparison of retention times and mass spectra of authentic standards. Headspace collection of greenhouse-grown, inflorescence-bearing snapdragons (Maryland True Pink, PanAmerican Seed Company, West Chicago, Ill.) was carried out for 24 hours. The snapdragon inflorescence-bearing stems for this experiment were carefully chosen to have a similar number of same-aged flowers. […] The sucrose level chosen was based upon the conclusions reached by Ichimura and Hisamatsu (1999, Journal for the Japanese Society for Horticultural Science, 68:61-66) that 5% (w/v) sucrose was the optimum sucrose level for maximum vase life of cut snapdragon flowers.

Petunia Cuttings = assay: Headspace GC-MS of methylbenzoate emission from Mitchell petunia cuttings; assay type: in vivo; conditions: 5% (w/v) sucrose with or without 0.1 mg/ml benzoic acid
Procedure: The petunia variety called ‘Mitchell’ is an older, non-commercial (i.e., research use only) cultivar (generally available from academic research institutions) that was previously known to emit floral scent, especially during the evening hours. […] With this identification of floral scent in hand, the uptake experiments carried out in Example 2 on cut snapdragon stems were repeated with inflorescence-bearing Mitchell petunia cuttings.
Headspace collection was performed on two intact flowers for a 24-hour period prior to harvest to measure the amount of methylbenzoate emitted. This methylbenzoate emission was measured by GC-MS and these values set at 100%. The two inflorescence-bearing stems were harvested and immediately were placed into a vessel containing 5% (w/v) sucrose or a vessel containing 5% (w/v) sucrose supplemented with 0.1 mg/ml benzoic acid. Headspace collection was carried out as described in Example 2 on the cuttings for five 24-hour periods after harvesting. During the fifth 24-hour period, the flowers on both cuttings eventually senesced and collapsed.

Cut Snapdragon Flowers [4] = assay: Floral scent emission of cut snapdragon flowers after 48 hours at 4° C. in darkness; assay type: in vivo; conditions: collected for 5 days at ambient temperature in the light after 48 hours at 4° C. in darkness; 5% (w/v) sucrose with or without 0.1 mg/ml benzoic acid
Procedure: Inflorescence-bearing snapdragon stems were harvested and incubated in water for 48 hours at 4° C. in darkness (to simulate post-harvest conditions at a commercial grower's facility and during shipping). […] The floral scent emission from the flowers was then collected for 5 days, and the total emission compared between the various treatments.

spotted cucumber beetle = conditions: in vivo; cited from earlier work
H. lineata moths = conditions: in vivo; cited from earlier work
[5] = tested on: snapdragon inflorescence-bearing stems; conditions: in vivo, 0.1 mg/ml
Procedure: (§1) To determine whether other floral scent precursors were taken up through the cut end of stems, and whether these compounds were transported in flowers other than snapdragon, the following experiment was performed.

[6] = tested on: lisianthus inflorescence-bearing stems; conditions: lisianthus (Eustoma), in vivo, 0.1 mg/ml
Procedure: as §1

Snapdragon Petals [7] = assay: Conversion of 14C-labelled floral scent precursor to 14C-methylbenzoate in situ by excised snapdragon petal lobes (headspace, scintillation counting); conditions: for nanocuries of 14C-methylbenzoate from 14C-phenylalanine: 220 nCi applied
Procedure: Ten lower lobes of snapdragon flowers (variety Maryland True Pink, PanAmerican Seed Company, West Chicago, Ill.) were excised from the rest of the flower. Two microliters of ^14C-benzoic acid (500 nanocuries, or nCi) were pipetted onto the cut edge of the lower lobes. At this time, the lobes were allowed to sit for 10 minutes to permit uptake of the radiolabeled benzoic acid. The lobes were placed cut edge down on wet filter paper and the headspace collected over the course of the next four hours. The columns which trapped the volatiles were changed at 30, 60, 120 and 240 minutes after the start of incubation and eluted with 3 mls of hexane. The eluate (1.5 mls) was then analyzed in a liquid scintillation counter for the presence and amount of ^14C-methylbenzoate. The identity of ^14C-methylbenzoate was verified by its retention time on a thin-layer chromatography plate. As can be observed below in Table 2a, emission of ^14C-methylbenzoate was first detected within one hour after the start of the incubation period. […] This increase was even more dramatic over the next 2 hours as the amount of methylbenzoate emissions increased over 5-fold (compared to the first 2-hour collections period).
In additional experiments (see Table 2b below), an essentially identical radiolabeled experiment was performed in which ^14C-phenylalanine (220 nCi) was substituted for ^14C-benzoic acid as the radiolabeled floral scent precursor. As was observed previously with ^14C-benzoic acid, the ^14C-phenylalanine was rapidly converted to ^14C-methylbenzoate. Within just 30 minutes after the start of the incubation period, ^14C-methylbenzoate was detected. The amount of ^14C-methylbenzoate increased rapidly during the following three successive collection periods, respectively, (the rate increasing during each successive period).

Snapdragon Petals [8] = assay: as above; conditions: Time 240 min; 220 nCi applied
[9] = Post-Spray 24 hours, 1 mg/ml sprayed to runoff

O=C(O)c1ccccc1 [BA, benzoic acid]
transcription of IS10a (IS10a): induce the transcription | electrolyte leakage [1]: rapid increase in electrolyte leakage | phytotoxicity (Potted Snapdragon Plant; 1 mg/ml spray, after 24 hours): evidence of phytotoxicity | Methylbenzoate emitted, percentage of amount emitted during the 24-hour period prior to spraying (Potted Snapdragon Plant; [9]): 152% | Myrcene emitted, percentage of amount emitted during the 24-hour period prior to spraying (Potted Snapdragon Plant; [9]): 52% | Ocimene emitted, percentage of amount emitted during the 24-hour period prior to spraying (Potted Snapdragon Plant; [9]): 58% | Total floral scent emitted, percentage of amount emitted during the 24-hour period prior to spraying (Potted Snapdragon Plant; [9]): 98% | contribution of the two monoterpenes to the overall floral scent (Potted Snapdragon Plant; after spraying 1 mg/ml (57% prior to spraying)): 33% | membrane potential [2]: rapid and weak hyperpolarization | Methylbenzoate emitted, percentage of amount emitted during the 24-hour period prior to harvest (Cut Snapdragon Flowers [3]; Day 1 after harvest): 84% | Myrcene emitted, percentage of amount emitted during the 24-hour period prior to harvest (Cut Snapdragon Flowers [3]; Day 1 after harvest): 158% | Ocimene emitted, percentage of amount emitted during the 24-hour period prior to harvest (Cut Snapdragon Flowers [3]; Day 1 after harvest): 139% | Percentage amount of total floral scent emitted compared to the 24-hour period prior to harvest (Cut Snapdragon Flowers [3]; Day 1 after harvest): 120^ % | Methylbenzoate emitted, percentage of amount emitted during the 24-hour period prior to harvest (Cut Snapdragon Flowers [3]; Day 2 after harvest): 91% | Myrcene emitted, percentage of amount emitted during the 24-hour period prior to harvest (Cut Snapdragon Flowers [3]; Day 2 after harvest): 142% | Ocimene emitted, percentage of amount emitted during the 24-hour period prior to harvest (Cut Snapdragon Flowers [3]; Day 2 after harvest): 122% | Percentage amount of total floral scent emitted compared to the 24-hour period prior to harvest (Cut Snapdragon Flowers [3]; Day 2 after harvest): 114% | Methylbenzoate emitted, percentage of amount emitted during the 24-hour period prior to harvest (Cut Snapdragon Flowers [3]; Day 3 after harvest): 8% | Myrcene emitted, percentage of amount emitted during the 24-hour period prior to harvest (Cut Snapdragon Flowers [3]; Day 3 after harvest): 23% | Ocimene emitted, percentage of amount emitted during the 24-hour period prior to harvest (Cut Snapdragon Flowers [3]; Day 3 after harvest): 20% | Percentage amount of total floral scent emitted compared to the 24-hour period prior to harvest (Cut Snapdragon Flowers [3]; Day 3 after harvest): 15% | Methylbenzoate emitted, percentage of amount emitted during the 24-hour period prior to harvest (Cut Snapdragon Flowers [3]; Day 4 after harvest): 4% | Myrcene emitted, percentage of amount emitted during the 24-hour period prior to harvest (Cut Snapdragon Flowers [3]; Day 4 after harvest): 26% | Ocimene emitted, percentage of amount emitted during the 24-hour period prior to harvest (Cut Snapdragon Flowers [3]; Day 4 after harvest): 18% | Percentage amount of total floral scent emitted compared to the 24-hour period prior to harvest (Cut Snapdragon Flowers [3]; Day 4 after harvest): 16% | Methylbenzoate emitted, percentage of amount emitted during the 24-hour period prior to harvest (Cut Snapdragon Flowers [3]; Day 5 after harvest): 3% | Myrcene emitted, percentage of amount emitted during the 24-hour period prior to harvest (Cut Snapdragon Flowers [3]; Day 5 after harvest): 18% | Ocimene emitted, percentage of amount emitted during the 24-hour period prior to harvest (Cut Snapdragon Flowers [3]; Day 5 after harvest): 18% | Percentage amount of total floral scent emitted compared to the 24-hour period prior to harvest (Cut Snapdragon Flowers [3]; Day 5 after harvest): 12%

OC[C@H]1O[C@@](CO)(O[C@H]2O[C@H](CO)[C@@H](O)[C@H](O)[C@H]2O)[C@@H](O)[C@@H]1O [Sucrose, sucrose, reference compound]
Percentage amount of methylbenzoate emitted compared to the 24-hour period prior to harvest (Petunia Cuttings; Day 1 after harvest): 62^2% | Percentage amount of methylbenzoate emitted compared to the 24-hour period prior to harvest (Petunia Cuttings; Day 2 after harvest): 76% | Percentage amount of methylbenzoate emitted compared to the 24-hour period prior to harvest (Petunia Cuttings; Day 3 after harvest): 48% | Percentage amount of methylbenzoate emitted compared to the 24-hour period prior to harvest (Petunia Cuttings; Day 4 after harvest): 33% | Percentage amount of methylbenzoate emitted compared to the 24-hour period prior to harvest (Petunia Cuttings; Day 5 after harvest (flowers senesced and collapsed)): 23% | Total Emission (Cut Snapdragon Flowers [4]): 30^1 Units of total floral scent | Methylbenzoate emitted, percentage of amount emitted during the 24-hour period prior to harvest (Cut Snapdragon Flowers [3]; Day 1 after harvest): 78% | Myrcene emitted, percentage of amount emitted during the 24-hour period prior to harvest (Cut Snapdragon Flowers [3]; Day 1 after harvest): 78% | Ocimene emitted, percentage of amount emitted during the 24-hour period prior to harvest (Cut Snapdragon Flowers [3]; Day 1 after harvest): 88% | Percentage amount of total floral scent emitted compared to the 24-hour period prior to harvest (Cut Snapdragon Flowers [3]; Day 1 after harvest): 85^ % | Methylbenzoate emitted, percentage of amount emitted during the 24-hour period prior to harvest (Cut Snapdragon Flowers [3]; Day 2 after harvest): 30% | Myrcene emitted, percentage of amount emitted during the 24-hour period prior to harvest (Cut Snapdragon Flowers [3]; Day 2 after harvest): 55% | Ocimene emitted, percentage of amount emitted during the 24-hour period prior to harvest (Cut Snapdragon Flowers [3]; Day 2 after harvest): 58% | Percentage amount of total floral scent emitted compared to the 24-hour period prior to harvest (Cut Snapdragon Flowers [3]; Day 2 after harvest): 48%

O=CC=Cc1ccccc1 [cinnamaldehyde]
attraction of the beetle (spotted cucumber beetle): attracted

O=C(O)C=Cc1ccccc1 [cinnamic acid]
electrolyte leakage [1]: rapid increase in electrolyte leakage

OCC=Cc1ccccc1 [cinnamyl alcohol]
attraction of the beetle (spotted cucumber beetle): attracted

COC(=O)c1ccccc1 [methylbenzoate]
EAG response (H. lineata moths): especially strong

O=C(O)c1ccccc1O [salicylic acid]
time after exposure at which leaf necrosis was first noticeable [5]: ≤ 2 days | time of exposure until leaf necrosis was observed [6]: > 5 days

^14C-benzoic acid
nanocuries of 14C-methylbenzoate from 14C-benzoic acid (Snapdragon Petals [7]; Time 0 min, 500 nCi applied to ten lower lobes): 0.030 nCi | nanocuries of 14C-methylbenzoate from 14C-benzoic acid (Snapdragon Petals [7]; Time 30 min, 500 nCi applied): 0.036 nCi | nanocuries of 14C-methylbenzoate from 14C-benzoic acid (Snapdragon Petals [7]; Time 60 min, 500 nCi applied): 0.354 nCi | nanocuries of 14C-methylbenzoate from 14C-benzoic acid (Snapdragon Petals [7]; Time 120 min, 500 nCi applied): 2.544 nCi | nanocuries of 14C-methylbenzoate from 14C-benzoic acid (Snapdragon Petals [7]; Time 240 min, 500 nCi applied): 13.226 nCi

^14C-phenylalanine
nanocuries of 14C-methylbenzoate from 14C-phenylalanine (Snapdragon Petals [8]): 25.387 nCi | nanocuries of 14C-methylbenzoate from 14C-phenylalanine (Snapdragon Petals [7]; Time 0 min): 0.295 nCi | nanocuries of 14C-methylbenzoate from 14C-phenylalanine (Snapdragon Petals [7]; Time 30 min): 0.983 nCi | nanocuries of 14C-methylbenzoate from 14C-phenylalanine (Snapdragon Petals [7]; Time 60 min): 1.874 nCi | nanocuries of 14C-methylbenzoate from 14C-phenylalanine (Snapdragon Petals [7]; Time 120 min): 5.635 nCi
